# Laboratory results published in patent publication US8541670B2, “Compositions and methods for inhibiting tumor cell growth” (priority 2007, dated 2013).
# Where no end group is shown, it is not given here.
# Assays:
# [1] = test system: AKT; assay: AKT activity in cultured neurons treated with PKA inhibitor or activator; type: cell-based
# Method: To evaluate the significance of the AKT-PKAc interaction, kinase inhibitors were employed. […] Thus, cultured neurons were treated with the selective PKA inhibitor, H-89, and the potent PKA activator, forskolin, and AKT activity was analyzed.
# [2] = test system: N2a cells; assay: Trypan blue staining, live and dead cell count; type: cell-based
# From the text: Therefore, in addition to capturing live images, cells were stained with trypan blue at different time intervals following treatment with ZaTa and counted by a light microscope using a hemocytometer.
# [3] = molecular target: T1, AKT (Homo sapiens, UniProt P31749); assay: Screen of PKAc peptide library for effect on catalytic activity of AKT; type: biochemical; conditions: single peptide
# T1 construct: purchased Upstate Biotechnology
# From the text: Unlike PKAc and protein kinase C (PKC) for which potent inhibitor peptides are readily available and widely used, inhibitors of AKT are generally lacking (Brazil, et al. (2004) supra). […] Moreover, optimal substrate motifs for AKT have been modified to design AKT inhibitors (Obata, et al. (2000) J. Biol. Chem. 275:36108-36115). Because the full-length PKAc protein inhibited the catalytic activity of AKT, a peptide library based on the human (GENBANK Accession No. NP_002721; SEQ ID NO:1) and bovine (GENBANK Accession No. CAA47627; SEQ ID NO:2) PKAc protein sequences was designed and synthesized. This library contained 96 overlapping peptides (Table 1), covering the full-length protein sequence of human and bovine PKAc from the N- to C-terminus. The library was extensively screened to identify fragments of PKAc that mediated the inhibitory effect of PKAc toward AKT.
# These peptides included peptide 49 (SEQ ID NO:56), 53 (SEQ ID NO:60), 62 (SEQ ID NO:69), 63 (SEQ ID NO:70) and 64 (SEQ ID NO:71). Combinations of consecutive overlapping peptide fragments were also assayed for an effect on the catalytic activity of AKT. A significant inhibitory effect was also observed when peptides 25 through 36 were combined (i.e., SEQ ID NOs:32-43), peptides 37 through 48 were combined (i.e., SEQ ID NOs:44-55), peptides 49 through 60 were combined (i.e., SEQ ID NOs:56-67), and peptides 61 through 72 were combined (i.e., SEQ ID NOs:68-79).
# [4] = molecular target: T2, AKT1 (Homo sapiens, UniProt P31749); assay: AKT1 radioactive in vitro kinase assay (32P incorporation into Ser-21 GSK-3 substrate peptide); type: biochemical; conditions: compared with ZaTa
# T2 construct: purchased Upstate Biotechnology
# Method: AKT1 catalytic activity was determined by measuring the incorporation of −^32P into Ser-21 glycogen synthase kinase 3[…] (GSK-3[…]) substrate peptide. Histogram bars represent the number of −^32P counts per minute (CPM). Reactions were carried out in the presence of different concentrations of the ZaTa peptide (SEQ ID NO:60), as well as a control peptide (SEQ ID NO:59) which shares 11 out of 17 amino acids in common with the N-terminus of the ZaTa peptide.
# Of particular interest with regard to inhibitory activity toward AKT was peptide […](SEQ ID NO:60) which flanked the Thr-197 phosphorylation site of PKAc. […] Furthermore, the inhibitory effect of ZaTa peptide was compared with an adjacent peptide ([…] SEQ ID NO:59), a peptide that overlaps with the 11 N-terminal amino acid residues of the ZaTa peptide and carries the Thr-197 phosphorylation site. In this assay, the level of incorporation of −^32 P into Ser-21 GSK-3[…] substrate peptide was used as the measure of AKT1 in vitro catalytic activity.
# For non-radioactive kinase assays, typically 25 ng of active AKT1 or PKAc (Upstate Biotechnology) was used in a kinase assay reaction buffer (20 mM MOPS, pH 7.2, 25 mM […]-glycerophosphate, 5 mM EGTA, 1 mM Na3VO4, 1 mM dithiothreitol, 75 mM MgCl2, and 0.5 mM ATP) in the presence of either 1 μL of Ser-9 GSK-3 GST fusion protein (Cell Signaling), or recombinant DARPP-32 (10 μg). For the radioactive kinase assays, typically 25 ng of kinase was added to the kinase assays reaction buffer (20 mM MOPS, pH 7.2, 25 mM […]-glycerophosphate, 5 mM EGTA, 1 mM Na3VO4, 1 mM dithiothreitol) containing 30 μM of dephosphorylated Ser-21 GSK-3 substrate peptide (Upstate Biotechnology) in the presence of different concentrations of inhibitor. Reactions were initiated by adding [−^32P] ATP (10 μCi/reaction) which was diluted in the reaction buffer, plus 500 μM cold ATP and 75 mM MgCl2. Kinase reactions were incubated 30° C. for 10-20 minutes. A 5 μL aliquot of the reaction was transferred to phosphocellulose paper, washed for 30 minutes with dH2O, and CPM of samples read in scintillation counter.
# [5] = test system: olfactory bulb cells; assay: In vivo TUNEL in olfactory bulb after repeated intranasal delivery; set-up: species or system C57BL/6 mice; conditions: repeated intranasal treatment for three days
# From the text: To confirm the apoptotic inducing effect of ZaTa in vivo, ZaTa was delivered to the mouse brain via the nasal cavity, a minimally invasive procedure compared to the stereotactic surgery. Intranasal delivery of compounds into the brain is an efficient and effective way for local delivery of compounds, without the need for passing the blood brain barriers, the major obstacle for studying the effect of different inhibitors/activators in CNS (Vyas, et al. (2005) Curr. Drug Deliv. 2:165-175; Hrafnkelsdottir, et al. (2005) Biol. Pharm. Bull. 28:1038-1042). […] This was visualized by double labeling of the brain sections with fluorescent TUNEL and a nuclear marker.
# Depending on the intended use, a pharmaceutical composition of the invention can be administered by any suitable means, including parenteral injection (such as intraperitoneal, subcutaneous, intratumoral or intramuscular injection), orally or by topical application (e.g., transdermal or via a mucosal surface). By pharmaceutically acceptable formulation is meant, a composition or formulation that allows for the effective distribution of the nucleic acid molecules of the instant invention in the physical location most suitable for their desired activity. […]
# [6] = test system: N2a cells; assay: MTT cell proliferation assay; type: cell-based; conditions: 10 μM, 48-hour treatment (FIG. 3, series 1)
# Method: In histogram series 2, treatments were removed after 24 hours and cells were incubated for another 24 hours without treatment. […] Mitochondrial activity (reflecting cellular growth and viability) in the presence of ZaTa and ZaTa variants (ZaTa T10D, ZaTa T8D, ZaTa T14R, and ZaTa Y17T) was evaluated by measuring the optical density (“OD”) at 490 nm on a plate reader. ZaTa T10D refers to a ZaTa polypeptide variant in which the Threonine (T) at position 10 of SEQ ID NO: 60 is substituted by an Aspartic Acid (D). ZaTa T8D refers to a ZaTa polypeptide variant in which the Threonine (T) at position 8 of SEQ ID NO: 60 is substituted by an Aspartic Acid (D). ZaTa T14R refers to a ZaTa polypeptide variant in which the Threonine (T) at position 14 of SEQ ID NO: 60 is substituted by an Arginine (R). ZaTa Y17T refers to a ZaTa polypeptide variant in which the Tyrosine (Y) at position 17 of SEQ ID NO: 60 is substituted by an Threonine (T).
# AKT affects a network that positively regulates G1/S cell cycle progression through several mechanisms that involve the expression and subcellular localization of the CDK inhibitor p27^Kip1 (Blain and Massague (2002) Nat. Med. 8:1076-1078; Liang, et al. (2002) supra; Shin, et al. (2002) supra; Viglietto, et al. (2002) supra). Based on these studies, the effect of ZaTa peptide on cell proliferation was assessed. […] Capturing live images of cultured N2a cells in the presence of different concentrations of the ZaTa peptide confirmed an obvious reduction in the number of dividing cells.
# Based on the importance of the C-terminal arm of ZaTa for its inhibitory action on AKT, it was determined whether the free hydroxyl groups on residues Thr-8, Thr-10 (equivalent to Thr-197 in full-length PKAc), Thr-14 and Tyr-17 were important for the biological activity of this peptide. Mutants of ZaTa peptide were synthesized by replacing Thr-8 or Thr-10 residues with Asp (ZaTa^T8D and ZaTa^T10D, respectively) as an amino acid with a negatively charged side chain. Mutants of ZaTa with the hydrophilic positively charged amino acid Arg at either position Thr-14 or Tyr-17 (ZaTa^T14R and ZaTa^Y17R, respectively) were also synthesized. […] The inhibitory effect of ZaTa peptide on cell proliferation was reversible, to a large extent, after the removal of ZaTa treatment (FIG. 3, histogram series 2).
# Cells (5×10^3) were incubated in 96-well plates in the presence of different concentrations of the ZaTa peptide, control peptide or DMSO as vehicle. Media was removed at different time intervals and replaced with media containing MTT (5 mg/mL), and incubated for one hour at 37° C. […] The activity of the mitochondria, reflecting cellular growth and viability, was evaluated by measuring the optical density at 490 nm on a plate reader.
# [7] = counted at time points from 12 to 72 hours
# T1 sequence (P31749 whole entry): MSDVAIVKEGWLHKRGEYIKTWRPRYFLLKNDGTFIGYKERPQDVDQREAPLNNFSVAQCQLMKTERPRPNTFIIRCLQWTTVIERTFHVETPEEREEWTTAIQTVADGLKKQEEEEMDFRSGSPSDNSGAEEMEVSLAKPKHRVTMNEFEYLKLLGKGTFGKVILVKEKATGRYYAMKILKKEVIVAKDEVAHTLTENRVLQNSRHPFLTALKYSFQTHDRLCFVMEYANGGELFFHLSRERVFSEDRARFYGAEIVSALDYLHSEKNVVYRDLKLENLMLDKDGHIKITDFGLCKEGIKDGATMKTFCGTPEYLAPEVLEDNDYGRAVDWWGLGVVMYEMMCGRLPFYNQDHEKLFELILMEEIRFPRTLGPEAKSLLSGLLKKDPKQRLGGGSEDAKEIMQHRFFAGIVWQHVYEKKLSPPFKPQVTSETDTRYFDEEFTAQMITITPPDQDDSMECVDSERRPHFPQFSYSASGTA
# T2 sequence (P31749 whole entry): as above
molecule,measurement,setting,value
O=S(=O)(NCCNC/C=C/c1ccc(Br)cc1)c1cccc2cnccc12 [Peptide H-89],"activity of AKT, phosphorylation level at Thr-308 and Ser-473",[1],dose-dependent increase
AKRVKGRDWTLCGTPEY [ZaTa^T8D],increase in the number of dead cells,[2]; [7],not seen
AKRVKGRTWDLCGTPEY [ZaTa^T10D],increase in the number of dead cells,[2]; [7],not seen
AKRVKGRTWTLCGRPEY [ZaTa^T14R],increase in the number of dead cells,[2]; only after 72 hours,significant increase in the number of dead cells
D-Q-Q-G-Y-I-Q-V-T-D-F-G-F-A-K (DQQGYIQVTDFGFAK; Peptide_SEQ ID NO:56) [Peptide 49],"inhibitory effect toward AKT, individual library peptides",[3],significant inhibitory effects
G-V-L-I-Y-E-M-A-A-G-Y-P-P-F-F (GVLIYEMAAGYPPFF; Peptide_SEQ ID NO:70) [Peptide 63],"inhibitory effect toward AKT, individual library peptides",[3],significant inhibitory effects
"GFAKRVKGRTWTL [control peptide, peptide overlapping the 11 N-terminal residues of ZaTa, reference compound]",inhibition of AKT1 catalytic activity,[4],not able to inhibit AKT1
same,number of apoptotic cells in olfactory bulb,[5],no change in the number of apoptotic cells
W-A-L-G-V-L-I-Y-E-M-A-A-G-Y (WALGVLIYEMAAGY; Peptide_SEQ ID NO:69) [Peptide 62],"inhibitory effect toward AKT, individual library peptides",[3],significant inhibitory effects
Y-E-M-A-A-G-Y-P-P-F-F-A (YEMAAGYPPFFA; Peptide_SEQ ID NO:71) [Peptide 64],"inhibitory effect toward AKT, individual library peptides",[3],significant inhibitory effects
ZaTa^Y17R: ZaTa mutant with Arg at position Tyr-17 (AKRVKGRTWTLCGTPER; Peptide_SEQ ID NO:60),effect of mutation on inhibition of cell proliferation relative to ZaTa,[6],considerably augmented ZaTa activity
same,increase in the number of dead cells,[2]; only after 72 hours,significant increase in the number of dead cells
